The values that follow come from patent publication US20080280866A1, “Method of Treating or Sepsis” (priority 2004, published 2008).

Data set [1] relates to voltage-dependent L-type calcium channels. The settings on record: GH4C1 cells, values determined by Harper; cited from earlier work.
Another data set deals with SOC channels. To be noted: HL-60 cells, values determined by Harper; cited from earlier work.
Data set [2] concerns rat traumatic, hemorrhagic shock model. Description: Rat traumatic, hemorrhagic shock model, treatment prior to shock.
Method: A rat traumatic, hemorrhagic shock model was used (32). […] Animals were then underwent T/HS, were resuscitated with shed blood and sacrificed by exsanguination 3 hours after resuscitation. We assayed lung injury as % Evans Blue dye leak, which provides a measure of the leakiness of lung capillaries. PMN activation was assessed as CD11b expression by flow cytometry (Table 1).
The subject of another data set is rat T/HS. Put plainly: Rat T/HS, post-shock treatment: lung MPO and Evans Blue dye leak. In kind it is in vivo. To be noted: IP after return of 10% of shed blood, estimated plasma level 30 μM; 3 hours after reperfusion; FIG. 1. Here is the method:
Male rats underwent standard T/HS. 4-[4-(4-Chloro-phenyl)-thiazol-2-ylamino]-phenol or N-propargyl-nitrendipine (estimated plasma level 30 μM for each) or vehicle were administered IP after the return of 10% of total shed blood to the animal. Different groups of animals (n=6/group) were sacrificed 3 hours after reperfusion for bronchoalveolar lavage and Evan's Blue dye leak assay, or to harvest the lungs for MPO assays (FIG. 1).
N=6 animals per condition, *p<0.01 for inter-group comparisons.

The next data set has as its system p38 MAP kinase. Description: Rat T/HS, post-shock treatment: Western blot of PMN phosphorylated p38 MAP kinase. In kind it is in vivo. To be noted: IP post-treatment; PMN lysates 3 hours after T/HS; FIG. 4. Here is the method:
The phosphorylation of p38-mitogen associated protein kinase [“p38 MAP kinase”] in the presence of inflammatory stimuli is a key cellular mechanism involved in irreversible neutrophil activation and post-shock organ injury. Male rats underwent T/HS with or without 4-[4-(4-chloro-phenyl)-thiazol-2-ylamino]-phenol or N-propargyl-nitrendipine administered IP in post-treatment as above. At the end of 3 hours post reperfusion, animals were sacrificed by exsanguination. PMN were isolated. Whole cell lysates were probed using specific antibodies for phosphorylated p38 MAP kinase. SOC inhibition via either strategy led to diminished activation. Lysates of rat PMN were sampled 3 hours after T/HS. Animals were treated with 4-[4-(4-chloro-phenyl)-thiazol-2-ylamino]-phenol or vehicle (DMSO) at the time of resuscitation. Positive controls (+) were rat PMN activated in vitro with fMLP. […] Thus SIP/SOC inhibition diminishes PMN p38 MAP kinase activation by T/HS.
A general note: A western blot detects proteins with antibodies after separation by electrophoresis.

The format of data set [3] is in vivo. Here is the method: In all the above experiments, rats undergoing T/HS were treated with SKI-2 or N-propargyl-nitrendipine given as an IP bolus just after the BP nadir. At this point, MAP has risen only from 30-40 to approximately 50 mmHg.
The subject of the next data set is PMN. Description: Rat T/HS, post-shock treatment: PMN CD11b and respiratory burst by flow cytometry. In kind it is in vivo. To be noted: IP post-treatment, whole blood 3 hrs post reperfusion; for PMN CD11b expression: FIG. 2; for PMN priming for respiratory burst initiated by PMA: FIG. 3. The protocol:
Male rats underwent T/HS with or without 4-[4-(4-chloro-phenyl)-thiazol-2-ylamino]-phenol or N-propargyl-nitrendipine administered IP in post-treatment as above. Small (200 μL) whole blood samples removed prior to shock and 3 hrs post reperfusion were assayed for PMN CD11b (FIG. 2) and respiratory burst (FIG. 3) by flow cytometry. […] Left histogram, preshock; Right histogram, 3 h post-shock; Center (dark) histogram, 3 h post-shock PMN from animal treated with the indicated drug during resuscitation. Representative flow histograms, n=3-4 per condition. P<0.01, ANOVA/Tukey's test for all inter-group comparisons. […] Representative flow histograms are arranged as in FIG. 2, n=3-4 per condition. P<0.01 by ANOVA/Tukey's test for all inter-group comparisons.
(In general: In flow cytometry, cells or beads pass a laser one at a time.)

For the next data set, the system named is PMN SOC. To be noted: cited from earlier work.
The mark [4] stands for this setting: IP bolus just after the BP nadir.

Entries after “also recorded” stand apart in the source; their conditions may differ. Like-named read-outs stand apart in the source and are kept apart here.

For `COC(=O)C1=C(C)N(C)C(C)=C(C(=O)OC)C1c1cccc([N+](=O)[O-])c1` [Compound 30], the half-maximal inhibitory concentration (IC50) in data set [1] was 2000 nM; with SOC channels it was 2800 ± 30 nM.

Take `CCOC(=O)C1=C(C)N(C)C(C)=C(C(=O)OC)C1c1cccc([N+](=O)[O-])c1` (stereo not shown) [Compound 32]: the IC50 in data set [1] is 1300 ± 300 nM; in the data set with SOC channels it was 2600 ± 1100 nM.

In the case of `CCOC(=O)C1=C(C)N(CC)C(C)=C(C(=O)OC)C1c1cccc([N+](=O)[O-])c1` (stereo not shown) [Compound 33], the IC50 is 2300 ± 400 nM in data set [1] and 6000 nM with SOC channels.

`C=CCN1C(C)=C(C(=O)OC)C(c2cccc([N+](=O)[O-])c2)C(C(=O)OCC)=C1C` (stereo not shown) [Compound 34]: the IC50 is 3800 ± 1800 nM in data set [1] and 6800 ± 1800 nM in the data set on SOC channels.

With `C#CCN1C(C)=C(C(=O)OC)C(c2cccc([N+](=O)[O-])c2)C(C(=O)OCC)=C1C` (stereo not shown) [Compound 35, N-propargyl-nitrendipine], in data set [1], the IC50 was 2100 ± 200 nM. Moreover, the “Attenuation of lung injury” value in data set [2] (pre-treatment IP, target concentration 30 μm) is “Identical attenuation of lung injury as in Example 1”. Further, the “Lung PMN infiltration by myeloperoxidase (MPO) assay” value in data set [2] (pre-treatment IP, data not shown) is “diminished lung PMN infiltration”. Further, in the data set on rat T/HS, the “Capillary-alveolar leakage (Evans Blue dye leak)” value is “prevented PMN accumulation and subsequent capillary-alveolar leakage; also recorded: yielded the same effects”; the “Pulmonary PMN infiltration/accumulation (MPO assay)” value was “prevented PMN accumulation; also recorded: yielded the same effects”. Also, the IC50 in the data set with SOC channels was 1700 ± 1300 nM. Further, the “PMN p38 MAP kinase phosphorylation/activation” value with p38 MAP kinase is “Attenuation of p38 MAP Kinase phosphorylation and activation was also seen”. Also, in data set [3] (setting [4]), the Episodes of hypotension entry is on record as “No episodes of hypotension were seen” and the “Survival of the acute shock phase” value is “all animals survived the acute shock phase”. For the same compound, in the data set with PMN, the “PMN CD11b expression” value was “decreased CD11b expression almost to the level seen prior to shock” and the “PMN priming for respiratory burst initiated by PMA” value is listed as “decreased PMN priming for respiratory burst initiated by PMA (phorbol 12-myristate 13-acetate) almost to the levels seen prior to shock”.

On to `Oc1ccc(Nc2nc(-c3ccc(Cl)cc3)cs2)cc1` [SKI-2, 4-[4-(4-Chloro-phenyl)-thiazol-2-ylamino]-phenol], for which the “CD11b (MFI)” value in data set [2] (PMN activation by flow cytometry, IP at laparotomy prior to shock, estimated plasma level 30 μM, 3 hours after resuscitation) is reported as 225 ± 18 MFI. Besides, the “Evans Blue (%)” value in data set [2] (lung injury as % Evans Blue dye leak, IP prior to shock, estimated plasma level 30 μM, 3 hours after resuscitation) was 3.8 ± 1.7 %. Besides, the Hemodynamic effects entry in data set [2] (pre-treatment IP) is “No unexpected hemodynamic effects were noted”. The Phlebotomy volumes result in data set [2] (treatment vs placebo groups, pre-treatment IP) was “identical in the treatment and placebo groups”. In the data set with rat T/HS, the “Capillary-alveolar leakage (Evans Blue dye leak)” value was “prevented PMN accumulation and subsequent capillary-alveolar leakage; also recorded: inhibits PMN mediated lung injury”; the “Pulmonary PMN infiltration/accumulation (MPO assay)” value is “prevented PMN accumulation; also recorded: inhibits PMN mediated lung injury”. For the same compound, the “PMN p38 MAP kinase phosphorylation/activation” value in the data set on p38 MAP kinase is given as “attenuation of MAPK activation”. For the same compound, the Episodes of hypotension result in data set [3] (setting [4]) is “No episodes of hypotension were seen”. Further, the “Survival of the acute shock phase” value in data set [3] (rat, in vivo, ip) is “all animals survived the acute shock phase”. Further, in the data set with PMN, the “PMN CD11b expression” value was “decreased CD11b expression almost to the level seen prior to shock” and the “PMN priming for respiratory burst initiated by PMA” value is recorded as “decreased PMN priming for respiratory burst initiated by PMA (phorbol 12-myristate 13-acetate) almost to the levels seen prior to shock”.

`[Gd+3]` [gadolinium (Gd3+), gadolinium]: the “Concentration inhibiting PMN SOC” value with PMN SOC was “low-mid nanomolar concentrations”.

Usually IC50 stands for the point on the concentration scale where inhibition reaches its midpoint.
